From article PMC8740778, “Translational Pharmacokinetic–Pharmacodynamic Modeling of NaV1.7 Inhibitor MK-2075 to Inform Human Efficacious Dose” (Frontiers in Pharmacology, 2021)
Marks after values point to notes of the source that are not given here.

Key:
[1] = parameters: method as in Rothenberg et al., 2019; conditions: healthy volunteers; no exposure-related pattern; ref Rothenberg et al., 2019; cited from earlier work
[2] = system: BALB/c male mice; test: Mouse tail flick latency; type: in vivo; conditions: at clinical efficacious concentrations
[3] = trough plasma concentration just prior to patient-controlled subsequent dose; postoperative pain; ref Dahlstrom et al., 1982 (morphine), Lehmann et al., 1990 (tramadol); cited from earlier work

Compound	Hyposmia (reduced sense of smell) in clinical study [1]	Percent of the maximum possible effect in mouse tail flick latency [2]	Clinical MEC, mean (range) [3]
O=C(NS(=O)(=O)N1CCC1)c1cc(C2CC2)c(OCC23CC4CC(CC(C4)C2)C3)cc1F [GDC-0276]	a couple of incidents of hyposmia were reported	–	–
CN1CC[C@]23c4c5ccc(O)c4O[C@H]2[C@@H](O)C=C[C@H]3[C@H]1C5 [Morphine]	–	approximately 50%	0.074 (0.032–0.116) ^b µM
COc1cccc(C2(O)CCCCC2CN(C)C)c1 (centres unmarked) [Tramadol]	–	approximately 50%	1.092 (0.077–3.744) ^c µM
